Like-named read-outs stand apart in the source and are kept apart here.
Test system: Adult mongrel dogs
Assay: Cardiotonic activity in anesthetized dogs (MAP, HR, dP/dtmax, contractile force), iv infusion
Assay type: in vivo
Details: for change in vivo at 1.875 mg/kg / ED (50% increase): Canis lupus familiaris; for ED (50% increase): dose producing 50% increase above baseline in myocardial contractile force, graphical estimation (n<3) or linear regression (n≥3), read-out: contractile force (CF) ED50
Method: Adult mongrel dogs were anesthetized with sodium pentobarbital (45 mg/kg, i.p.) and artificially respired. Mean arterial pressure (MAP) was recorded from a cannulated femoral artery and drugs were infused into a cannulated femoral vein. The arterial pressure pulse was used to trigger a cardiotachometer for determination of heart rate (HR). Left ventricular pressure was measured with a Millar catheter and dP/dtmax was derived. A right thoracotomy was performed and myocardial contractile force (CF) was measured with a Walton Brodie strain gauge sutured to the right ventricle. The ventricular muscle was stretched to produce a baseline tension of 100 g. A standard dose of dopamine (10-15 ug/kg/min for 3 min) was administered to determine myocardial responsiveness to inotropic stimulation. Test compounds were solubilized in a small volume of DMF diluted to a final concentration of 10% in physiological saline. Alternatively, where possible, a soluble hydrochloride salt was prepared by addition of 0.1N HCl diluted in physiological saline. Vehicles were tested in appropriate volumes and found to exert less than a 5% effect on contractile force. For iv studies, compounds were administered by infusion pump (one drug per animal) at rates of 0.58-2.2 mL/min in three to four stepwise increasing doses. Each dose was infused over 5 min immediately after the effect of the previous dose peaked. MAP, HR, dP/dtmax and CF responses were continuously monitored on a Beckman or Gould recorder and expressed as a percent change from pre-drug control values vs. the cumulative dose of drug administered. For these studies, n represents the number of test animals used.
Quantitation of the inotropic potency was obtained by calculation of the contractile force (CF) ED50. This was defined as the dose of compound that produced a 50% increase above baseline in myocardial contractile force. The value was obtained from three to four point dose-response curves using either graphical estimation (n<3) or linear regression analysis (n≥3). Numbers in parentheses are number of animals screened.

[1] = cumulative dose 1.875 mg/kg, femoral artery, read-out: MAP (mean arterial pressure), % Δ from control
[2] = cumulative dose 1.875 mg/kg, read-out: HR (heart rate), % Δ from control
[3] = cumulative dose 1.875 mg/kg, read-out: dP/dt (left ventricular dP/dtmax), % Δ from control
[4] = cumulative dose 1.875 mg/kg, right ventricle strain gauge, read-out: CF (myocardial contractile force), % Δ from control

OC(CSc1ncnc2c1cnn2CC1CO1)CN1CCN(C(c2ccccc2)c2ccccc2)CC1 (stereo not drawn) [Example 5, 1-(1,2-Epoxy-3-propanyl)-4-[1-(diphenylmethylpiperazin-4-yl]-2-hydroxy-3-propanylthio]-1H-pyrazolo[3,4-d]pyrimidine]
HR (heart rate), % Δ from control (cumulative dose 1.875 mg/kg): -14 % Δ from control | dP/dt (left ventricular dP/dtmax), % Δ from control (cumulative dose 1.875 mg/kg): 28 % Δ from control | MAP (mean arterial pressure), % Δ from control (cumulative dose 1.875 mg/kg, femoral artery): -8 % Δ from control | CF (myocardial contractile force), % Δ from control (cumulative dose 1.875 mg/kg, right ventricle strain gauge): 38 % Δ from control

OC(COc1ncnc2c1cnn2C1CCCCO1)CN1CCN(C(c2ccc(F)cc2)c2ccc(F)cc2)CC1 (stereo not drawn) [Example 3, 4-[3-[4-[Bis(4-fluorophenyl)methyl]-piperazin-1-yl]-2-hydroxy-propoxy]-1-(tetrahydropyran-2-yl)pyrazolo[3,4-d]pyrimidine]
change in vivo at 1.875 mg/kg [1]: -13% | change in vivo at 1.875 mg/kg [2]: 1% | change in vivo at 1.875 mg/kg [3]: 1% | change in vivo at 1.875 mg/kg [4]: 14%

CCN(CC(O)CN1CCN(C(c2ccc(F)cc2)c2ccc(F)cc2)CC1)c1ncnc2[nH]ncc12 (stereo not drawn) [Example 10, 4-[3-[4-Bis(4-fluorophenyl)methyl]-1-piperazinyl]-2-hydroxypropyl-N-ethylamino]-1H-pyrazolo[3,4-d]pyrimidine.1/4 Hydrate]
change in vivo at 1.875 mg/kg [1]: 3% | change in vivo at 1.875 mg/kg [2]: 13% | change in vivo at 1.875 mg/kg [3]: 44% | change in vivo at 1.875 mg/kg [4]: 63%

OC(CSc1ncnc2[nH]ncc12)CN1CCN(C(c2ccc(F)cc2)c2ccc(F)cc2)CC1 (stereo not drawn) [Example 1]
change in vivo at 1.875 mg/kg [1]: -3% | change in vivo at 1.875 mg/kg [2]: -10% | change in vivo at 1.875 mg/kg [3]: 124% | change in vivo at 1.875 mg/kg [4]: 205% | ED (50% increase): 0.225 mg/kg

OC(CSc1ncnc2[nH]ncc12)CN1CCN(C(c2ccc(Cl)cc2)c2ccc(Cl)cc2)CC1 (stereo not drawn) [Example 4, 4-[1-[1-[Bis(4-chlorophenyl)methyl]piperazin-4-yl]-2-hydroxy-3-pronanylthio]-1H-pyrazolo[3,4-d]pyrimidine]
change in vivo at 1.875 mg/kg [1]: 8% | change in vivo at 1.875 mg/kg [2]: 1% | change in vivo at 1.875 mg/kg [3]: 90% | change in vivo at 1.875 mg/kg [4]: 163% | ED (50% increase): 0.45 mg/kg

OC(CNc1ncnc2[nH]ncc12)CN1CCN(C(c2ccc(F)cc2)c2ccc(F)cc2)CC1 (stereo not drawn) [Example 7, 4-[3-[4-Bis(4-fluorophenyl)methyl]-1-piperazinyl]-2-hydroxypropylamino-1H-pyrazolo[3,4-d]pyrimidine sesquihydrate]
change in vivo at 1.875 mg/kg [1]: 6% | change in vivo at 1.875 mg/kg [2]: -20% | change in vivo at 1.875 mg/kg [3]: 33% | change in vivo at 1.875 mg/kg [4]: 111%

CON(CC(O)CN1CCN(C(c2ccc(F)cc2)c2ccc(F)cc2)CC1)c1ncnc2[nH]ncc12 (stereo not drawn) [Example 11, 4-[3-[4-Bis(4-fluorophenyl)methyl-1-piperazinyl-2-hydroxypropyl-N-methoxyamino]-(1H)-pyrazolo[3,4-d]pyrimidine.5/4 Hydrate]
change in vivo at 1.875 mg/kg [1]: -2% | change in vivo at 1.875 mg/kg [2]: 5% | change in vivo at 1.875 mg/kg [3]: 25% | change in vivo at 1.875 mg/kg [4]: 37%

CC(=O)OC(CNc1ncnc2[nH]ncc12)CN1CCN(C(c2ccc(F)cc2)c2ccc(F)cc2)CC1 (stereo not drawn) [Example 8, 4-[3-[4-Bis(4-fluorophenyl)methyl]-1-piperazinyl]-2-acetoxypropylamino-1H-pyrazolo[3,4-d]pyrimidine Hemihydrate]
change in vivo at 1.875 mg/kg [1]: 6% | change in vivo at 1.875 mg/kg [2]: -1% | change in vivo at 1.875 mg/kg [3]: 61% | change in vivo at 1.875 mg/kg [4]: 135%

CN(CC(O)CN1CCN(C(c2ccc(F)cc2)c2ccc(F)cc2)CC1)c1ncnc2[nH]ncc12 (stereo not drawn) [Example 9, 4-[3-[4-Bis(4-fluorophenyl)methyl-1-piperazinyl]-2-hydroxypropylamino-N-methylamino-1H-pyrrazolo[3,4-d]pyrimidine Hemihydrate]
change in vivo at 1.875 mg/kg [1]: 4% | change in vivo at 1.875 mg/kg [2]: 3% | change in vivo at 1.875 mg/kg [3]: 52% | change in vivo at 1.875 mg/kg [4]: 54%

OC(CSc1ncnc2[nH]ncc12)CN1CCN(C(c2ccccc2)c2ccccc2)CC1 (stereo not drawn) [Example 2, 4-[2-Hydroxy-1-[(diphenylmethyl)piperazin-4-yl)-3-propanylthio]-1H-pyrazolo[3,4-d]pyrimidine Hemihydrate]
change in vivo at 1.875 mg/kg [1]: -12% | change in vivo at 1.875 mg/kg [2]: -11% | change in vivo at 1.875 mg/kg [3]: 48% | change in vivo at 1.875 mg/kg [4]: 97%

— patent US5001127A, “4-substituted pyrazolo[3,4-d]pyrimidine derivatives” (Ortho Pharmaceutical Corporation, priority 1989, dated 1991)
